Numbers after ± are expanded uncertainties.
Conditions: 100 kPa, Liquid; for viscosity: Concentric cylinders viscometry; for mass density: Vibrating tube method

With CCCCCCn1cc[n+](C)c1.O=[N+]([O-])[O-] [1-hexyl-3-methylimidazolium nitrate] the viscosity (293.15 K) was 804.17 ± 70 mPa·s, the mass density (293.15 K) was 1120.3 ± 1.4 kg/m3 and the viscosity (298.15 K) was 545.25 ± 47 mPa·s. The mass density (298.15 K) was 1117.5 ± 1.4 kg/m3, the viscosity (303.15 K) was 369.14 ± 31 mPa·s and the mass density (303.15 K) was 1114.3 ± 1.4 kg/m3. The viscosity (308.15 K) was 257.59 ± 21 mPa·s, the mass density (308.15 K) was 1111.1 ± 1.4 kg/m3 and the viscosity (313.15 K) was 185.67 ± 15 mPa·s. The mass density (313.15 K) was 1107.8 ± 1.4 kg/m3, the viscosity (318.15 K) was 140.18 ± 11 mPa·s and the mass density (318.15 K) was 1104.7 ± 1.4 kg/m3. It also gave a viscosity (323.15 K) of 110.94 ± 9 mPa·s and a mass density (323.15 K) of 1101.6 ± 1.4 kg/m3.
